Where a SMILES comes first, the peptide text is derived from it. [ ]: non-standard residue; d: D form. The star is where a group is joined. Ac6c = NC1(C(=O)O)CCCCC1; NHiPr = CC(C)N*; Sar = CNCC(=O)O
Columns and labels:
Type in all cases: cell-based
human AT1R [1] = target: T1, human AT1R (Homo sapiens, UniProt P30556); experiment: beta-arrestin2 recruitment assay (PathHunter), human AT1R; conditions: for Emax: 1 h, read-out: Span (relative to hAngII)
T1 sequence (P30556 1-359): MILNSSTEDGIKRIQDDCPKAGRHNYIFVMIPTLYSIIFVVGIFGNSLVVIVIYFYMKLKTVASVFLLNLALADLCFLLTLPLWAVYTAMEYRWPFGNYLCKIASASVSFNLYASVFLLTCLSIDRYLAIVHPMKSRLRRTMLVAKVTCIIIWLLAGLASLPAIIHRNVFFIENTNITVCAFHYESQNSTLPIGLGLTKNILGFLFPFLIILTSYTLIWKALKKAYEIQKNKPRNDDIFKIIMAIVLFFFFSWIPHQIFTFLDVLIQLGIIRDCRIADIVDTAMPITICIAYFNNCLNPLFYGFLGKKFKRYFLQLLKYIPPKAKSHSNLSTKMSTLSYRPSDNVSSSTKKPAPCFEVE
Procedure: (§1) The proximal event in β-arrestin function mediated by GPCRs is recruitment to receptors following ligand binding and receptor phosphorylation by GRK's. Thus, the measure of β-arrestin recruitment was used to determine ligand efficacy for β-arrestin function.
(§2) B-arrestin-2 recruitment to the human and rat angiotensin 2 type 1 receptor (human AT1R and rat AT1aR, respectively) was measured with the PathHunter™ μl-arrestin assay (DiscoveRx Corporation, Fremont Calif.). Cells, plasmid(s), and detection reagent(s) were purchased from DiscoveRx, and assays were performed per manufacturer's instructions. Human AT1R and rat AT1aR were cloned into the pCMV-ProLink vector, verified by sequencing, and transfected into PathHunter β-arrestin HEK293 cells. Stably transfected clonal cell lines were selected with Hygromycin and G418. These clonal cell lines were used for all experiments.
(§3) For assays, 4,000-8,000 cells were seeded per well in 384-well microplates “HiBase” small-volume plate in volumes of 20 uL and grown overnight in the incubator (37° C., 5% CO2, saturated humidity). Peptides were dissolved in DMSO to a concentration of 10 mM. Peptides were then further diluted in assay buffer (Hank's balanced salt solution with 20 mM HEPES) to add peptide to the cells to reach final concentrations ranging from 100 μM to 1 pM. Cells were then incubated for 60 minutes at 37° C. in 5% CO2, followed by addition of 2 μL of PathHunter Detection Reagent to each well. The microplates were then incubated at room temperature for 60 minutes, and then luminescence was measured using a PHERAstar Plus microplate reader from BMG Labtech. B-arrestin-2 recruitment to receptors was measured as relative luminescence intensity expressed in arbitrary units.

human AT1R [2] = target: T1, human AT1R; experiment: IP1 accumulation assay (IP1 G-protein assay), human AT1R; conditions: for Emax: read-out: Span (relative to hAngII)
Procedure: (§4) A secondary measure of G protein coupling efficacy was also performed. IP3 is generated by activation of phospholipase C by Gα-q. IP3 is degraded to IP1, which can be forced to accumulate in cells by blocking degradation with lithium chloride. Thus we measured accumulation of IP1 to determine ligand efficacy for G protein activation.
(§5) IP1 accumulation generated by human and rat angiotensin 2 type 1 receptor (human AT1R and rat AT1aR, respectively) was measured with IP-One Tb kits purchased from Cisbio and used per the manufacturer's instructions. Clonal stably transfected cell lines expressing human AT1TR or rat AT1aR were used for all experiments.
(§6) For assays, 4,000-8,000 cells were seeded per well in 384-well small-volume microplates “HiBase” small-volume plate in volumes of 20 uL and allowed to grow overnight at 37° C. in 5% CO2. Cell growth media was then replaced with stimulation buffer supplied by Cisbio containing 50 mM lithium chloride. […] For agonist detection, peptides were then further diluted in stimulation buffer to add peptide to the cells to reach final concentrations ranging from 100 uM to 1 pM. Following addition of peptides, cells were incubated at 37° C. in 5% CO2 for 30 minutes and then lysed with 4 uL of pre-mixed HTRF IP-One reagents diluted per manufacturer's instructions (Cisbio). Microplates were incubated for 60-90 minutes at room temperature and then time-resolved fluorescence intensities were measured using a PHERAstar Plus microplate reader from BMG Labtech. IP1 accumulation was measured as change in ratio of time-resolved fluorescent intensities measured at 665 nm and 620 nm.

rat AT1aR [3] = target: T2, rat AT1aR (Rattus norvegicus, UniProt P25095); experiment: beta-arrestin2 recruitment assay (PathHunter), rat AT1aR; conditions: for Emax: 1 h, read-out: Span (relative to hAngII)
T2 sequence (P25095 1-359): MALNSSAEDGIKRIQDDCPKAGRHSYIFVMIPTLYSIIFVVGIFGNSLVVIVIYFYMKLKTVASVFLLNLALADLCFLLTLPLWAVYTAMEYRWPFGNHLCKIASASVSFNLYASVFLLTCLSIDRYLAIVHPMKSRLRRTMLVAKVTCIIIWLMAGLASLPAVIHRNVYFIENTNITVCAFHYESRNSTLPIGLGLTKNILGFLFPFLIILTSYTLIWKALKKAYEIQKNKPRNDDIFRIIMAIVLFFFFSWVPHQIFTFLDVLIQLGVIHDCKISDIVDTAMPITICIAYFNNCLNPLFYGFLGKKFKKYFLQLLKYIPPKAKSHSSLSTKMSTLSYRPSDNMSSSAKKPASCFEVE
Procedure: as §1, §2, §3

rat AT1aR [4] = target: T2, rat AT1aR; experiment: IP1 accumulation assay (IP1 G-protein assay), rat AT1aR; conditions: for Emax: read-out: Span (relative to hAngII)
Procedure: as §4, §5, §6

Compound	Emax (human AT1R [1]) [%]	EC50 (human AT1R [1]; read-out: EC50) [nM]	EC50 (human AT1R [1]; read-out: pEC50 (converted)) [nM]	EC50 (human AT1R [2]; read-out: EC50) [nM]	Emax (human AT1R [2]) [%]	EC50 (human AT1R [2]; read-out: pEC50 (converted)) [nM]	Emax (rat AT1aR [3]) [%]	EC50 (rat AT1aR [3]; read-out: EC50) [nM]	EC50 (rat AT1aR [3]; read-out: pEC50 (converted)) [nM]	EC50 (rat AT1aR [4]; read-out: EC50) [nM]	EC50 (rat AT1aR [4]; read-out: pEC50 (converted)) [nM]	EC50 (nM) (human AT1R [2])	pEC50 (human AT1R [2])	Emax (rat AT1aR [4]) [%]
CC[C@H](C)[C@H](NC(=O)[C@@H]1CCCN1C(=O)[C@H](Cc1c[nH]cn1)NC(=O)C1(NC(=O)[C@H](Cc2ccc(O)cc2)NC(=O)[C@@H](NC(=O)[C@H](CCCNC(=N)N)NC(=O)CNC)C(C)C)CCCCC1)C(=O)O [SEQ ID NO: 11, Sar-Arg-Val-Tyr-cyHex-His-Pro-Ile] (H-[Sar]RVY[Ac6c]HPI-OH)	< 101	> 3.2	> 3.16	> 1.3	< 103	> 0.631	< 105	> 3.2	> 3.16	> 0.6	> 0.631	–	–	–
CNCC(=O)N[C@@H](CCCNC(=N)N)C(=O)N[C@H](C(=O)N[C@@H](Cc1ccc(O)cc1)C(=O)NC1(C(=O)N[C@@H](Cc2c[nH]cn2)C(=O)N2CCC[C@H]2C(=O)N[C@H](C)C(=O)O)CCCC1)C(C)C [SEQ ID NO: 59, Sar-Arg-Val-Tyr-cyPen-His-Pro-D-Ala]	< 101	> 3.2	> 3.16	–	–	–	< 105	> 3.2	> 3.16	> 0.6	> 0.631	Inactive	Inactive	< 104
CNCC(=O)N[C@@H](CCCNC(=N)N)C(=O)N[C@H](C(=O)N[C@@H](Cc1ccc(O)cc1)C(=O)NC1(C(=O)N[C@@H](Cc2c[nH]cn2)C(=O)N2CCC[C@H]2C(=O)NC(C)C)CCCCC1)C(C)C [SEQ ID NO: 46, Sar-Arg-Val-Tyr-cyHex-His-Pro-NH-i-Pr] (H-[Sar]RVY[Ac6c]HP-NHiPr)	< 101	> 3.2	> 3.16	> 1.3	< 103	> 0.631	< 105	> 3.2	> 3.16	–	–	–	–	–
CNCC(=O)N[C@@H](CCCNC(=N)N)C(=O)N[C@H](C(=O)N[C@@H](Cc1ccc(O)cc1)C(=O)N1CCC[C@H]1C(=O)N[C@@H](Cc1c[nH]cn1)C(=O)N1CCC[C@H]1C(=O)N[C@@H](CO)C(=O)O)C(C)C [SEQ ID NO: 8, Sar-Arg-Val-Tyr-Pro-His-Pro-Ser] (H-[Sar]RVYPHPS-OH; N-terminus and C-terminus assumed)	< 101	–	–	–	< 103	–	< 105	–	–	–	–	–	–	–
CNCC(=O)N[C@@H](CCCNC(=N)N)C(=O)N[C@H](C(=O)N[C@@H](Cc1ccc(O)cc1)C(=O)NC1(C(=O)N[C@@H](Cc2c[nH]cn2)C(=O)N2CCC[C@H]2C(=O)N[C@@H](Cc2c[nH]cn2)C(=O)O)CCCCC1)C(C)C [SEQ ID NO: 37, Sar-Arg-Val-Tyr-cyHex-His-Pro-His] (H-[Sar]RVY[Ac6c]HPH-OH)	< 101	> 3.2	> 3.16	–	–	–	< 105	> 3.2	> 3.16	> 0.6	> 0.631	–	–	< 104
CC[C@H](C)[C@H](NC(=O)[C@@H]1CCCN1C(=O)[C@H](Cc1c[nH]cn1)NC(=O)[C@@H]1CCCN1C(=O)[C@H](Cc1ccc(O)cc1)NC(=O)[C@@H](NC(=O)[C@H](CCCNC(=N)N)NC(=O)CNC)C(C)C)C(=O)O [SEQ ID NO: 4, Sar-Arg-Val-Tyr-Pro-His-Pro-Ile] (H-[Sar]RVYPHPI-OH; N-terminus and C-terminus assumed)	< 101	–	–	–	< 103	–	< 105	–	–	–	–	–	–	–
